Reference: ChEMBL document CHEMBL1914403 (J Med Chem, 2011)

Legend:
[1] = Drug uptake in brain; assay type: ADME, tissue-based
[2] = Oral bioavailability in rat at 2 mg/kg; assay type: ADME, organism-based; settings: in vivo
[3] = AUC in plasma of rat at 10 mg/kg, po; assay type: ADME, organism-based; design: dose 10 mg/kg, route oral
[4] = AUC in brain of rat at 10 mg/kg, po; assay type: ADME, organism-based; design: dose 10 mg/kg, route oral
[5] = system: Rattus norvegicus; test: Volume of distribution at steady state in rat at 2 mg/kg, po; assay type: ADME, organism-based; design: dose 2 mg/kg, route oral; settings: in vivo
[6] = Oral bioavailability in rat at […]; assay type: ADME, organism-based; settings: in vivo
[7] = system: Rattus norvegicus; test: Volume of distribution at steady state in rat at […], po; assay type: ADME, organism-based; design: dose 2.5 mg/kg, route oral; settings: in vivo
[8] = system: MDCK; test: Apparent permeability across basolateral to apical side of dog MDCK cells expressing human MDR1; assay type: ADME, cell-based, Canis lupus familiaris
[9] = Oral bioavailability in dog at […]; assay type: ADME, organism-based, Canis lupus familiaris; settings: in vivo
[10] = system: Canis familiaris; test: Volume of distribution at steady state in dog at […], po; assay type: ADME, organism-based, Canis lupus familiaris; design: dose 2.5 mg/kg, route oral; settings: in vivo
[11] = system: MDCK; test: Apparent permeability across apical to basolateral side of dog MDCK cells expressing human MDR1; assay type: ADME, cell-based, Canis lupus familiaris
[12] = system: Canis familiaris; test: Volume of distribution at steady state in dog at 2 mg/kg, po; assay type: ADME, organism-based, Canis lupus familiaris; design: dose 2 mg/kg, route oral; settings: in vivo
[13] = Oral bioavailability in dog at 2 mg/kg; assay type: ADME, organism-based, Canis lupus familiaris; settings: in vivo
[14] = system: Rattus norvegicus; test: Volume of distribution at steady state in rat at 0.1 mg/kg, po; assay type: ADME, organism-based; design: dose 0.1 mg/kg, route oral; settings: in vivo
[15] = Oral bioavailability in dog at 0.5 mg/kg; assay type: ADME, organism-based, Canis lupus familiaris; settings: in vivo
[16] = Oral bioavailability in rat at 0.1 mg/kg; assay type: ADME, organism-based; settings: in vivo
[17] = system: Canis familiaris; test: Volume of distribution at steady state in dog at 0.5 mg/kg, po; assay type: ADME, organism-based, Canis lupus familiaris; design: dose 0.5 mg/kg, route oral; settings: in vivo

Drug uptake [1] [%]	SMILES	other results
> 90	COc1ccc2nc(C)c3c(C)nc(-c4ccccc4C)n3c2n1	
> 90	COc1ccc2nc(C)c3c(C)nc(-c4ccccc4C(F)(F)F)n3c2n1	
> 90	COc1ccc2nc(C)c3c(C)nc(-c4ccccc4Cl)n3c2n1	
> 90	COc1ccc2nc(C)c3c(C)nc(-c4cc(Cl)ccc4Cl)n3c2n1	
> 90	COc1ccc2nc(C)c3c(C)nc(-c4ccc(F)cc4Cl)n3c2n1	
> 90	COc1ccc2nc(C)c3c(C)nc(-c4ccccc4OC)n3c2n1	
> 90	COc1ccc2nc(C)c3c(C)nc(-c4ccccc4OC(F)(F)F)n3c2n1	
> 90	COc1ccc2nc(C)c3c(C)nc(-c4ccccc4C(N)=O)n3c2n1	
> 90	COc1ccc2nc(C)c3c(C(F)(F)F)nc(-c4ccccc4C)n3c2n1	
> 90	COc1ccc2nc(C)c3c(C(F)(F)F)nc(-c4ccccc4Cl)n3c2n1	
> 90	COc1ccc2nc(C)c3c(C(F)(F)F)nc(-c4cc(Cl)ccc4Cl)n3c2n1	
> 90	COc1ccc2nc(C)c3c(C(F)(F)F)nc(-c4ccc(F)cc4Cl)n3c2n1	
> 90	COc1ccc2nc(C)c3c(C(F)(F)F)nc(-c4cc(F)ccc4Cl)n3c2n1	
> 90	COc1ccc(Cl)c(-c2nc(C(F)(F)F)c3c(C)nc4ccc(OC)nc4n23)c1	
> 90	COc1ccc2nc(C(F)(F)F)c3c(C)nc(-c4ccccc4Cl)n3c2n1	
> 90	COc1ccc2nc(C(F)F)c3c(C)nc(-c4ccccc4Cl)n3c2n1	
> 90	COc1ccc2nc(C#N)c3c(C)nc(-c4ccccc4Cl)n3c2n1	
> 90	COc1ccc2nc(C)c3c(C)nc(-c4sccc4C)n3c2n1	
> 90	COc1ccc2nc(C)c3c(C)nc(-c4cccn4C)n3c2n1	
> 90	COc1ccc2nc(C)c3c(C)nc(-c4cn[nH]c4)n3c2n1	
> 90	COc1ccc2nc(C)c3c(C)nc(-c4c(C)n[nH]c4C)n3c2n1	
> 90	COc1ccc2nc(C)c3c(C)nc(-c4c(C)nn(C)c4C)n3c2n1	bioavailability [2]: 67%; AUC [3]: 4130 ng·h/mL; AUC [4]: 2940 ng·h/mL; Vdss [5]: 0.7 L/kg
> 90	COc1ccc2nc(C)c3c(C)nc(-c4c(C)noc4C)n3c2n1	
> 90	COc1ccc2nc(C)c3c(C)nc(-c4sc(C)nc4C)n3c2n1	
> 90	COc1ccc2nc(C)c3c(C)nc(-c4cncnc4)n3c2n1	
> 90	COc1ccc2nc(C)c3c(C)nc(-c4cccnc4)n3c2n1	

Drug uptake [1] [%]	SMILES	other results
> 90	COc1ccc2nc(C)c3c(C)nc(-c4cccnc4C)n3c2n1	
> 90	COc1ccc2nc(C)c3c(C)nc(-c4cnccc4C)n3c2n1	AUC [3]: 747 ng·h/mL; AUC [4]: 866 ng·h/mL; bioavailability [6]: 25%; Vdss [7]: 1 L/kg
> 90	COc1ccc2nc(C)c3c(C)nc(-c4ccc(C)nc4)n3c2n1	
> 90	COc1ccc2nc(C)c3c(C)nc(-c4cnccc4Cl)n3c2n1	
> 90	COc1ccc2nc(C)c3c(C)nc(-c4ccncc4C)n3c2n1	
> 90	COc1ccc2nc(C)c3c(C)nc(-c4ccncc4Cl)n3c2n1	
> 90	COc1ccc2nc(C)c3c(C)nc(-c4cccnc4OC)n3c2n1	
> 90	COc1ccc2nc(C)c3c(C)nc(-c4cnccc4OC)n3c2n1	
> 90	Cc1ccncc1-c1nc(C)c2c(C)nc3ccccc3n12	
> 90	Cc1ccncc1-c1nc(C)c2c(C)nc3ccc(F)cc3n12	
> 90	Cc1cnccc1-c1nc(C)c2c(C)nc3ccc(F)cc3n12	
> 90	Cc1ccccc1-c1nc(C)c2c(C)nc3ccc(F)cc3n12	
> 90	Cc1ccncc1-c1nc(C)c2c(C)nc3ccc(Cl)cc3n12	
> 90	Cc1cnccc1-c1nc(C)c2c(C)nc3ccc(Cl)cc3n12	
> 90	COc1ccc2nc(C)c3c(C)nc(-c4cnccc4C)n3c2c1	
> 90	Cc1ccncc1-c1nc(C)c2c(C)nc3ccc(OC(F)(F)F)cc3n12	
> 90	Cc1cnccc1-c1nc(C)c2c(C)nc3ccc(OC(F)(F)F)cc3n12	
> 90	Cc1ccncc1-c1nc(C)c2c(C)nc3ccc(C(F)(F)F)cc3n12	
> 90	Cc1cnccc1-c1nc(C)c2c(C)nc3ccc(C(F)(F)F)cc3n12	
> 90	Cc1ncccc1-c1nc(C)c2c(C)nc3ccc(C(F)(F)F)cc3n12	
> 90	Cc1ccncc1-c1nc(C)c2c(C)nc3c(F)cc(F)cc3n12	
> 90	Cc1cnccc1-c1nc(C)c2c(C)nc3c(F)cc(F)cc3n12	
> 90	COc1cc(F)cc2c1nc(C)c1c(C)nc(-c3cnccc3C)n12	
> 90	COc1cc(F)cc2c1nc(C)c1c(C)nc(-c3ccncc3C)n12	AUC [3]: 3640 ng·h/mL; AUC [4]: 2370 ng·h/mL; Papp [8]: permeable; bioavailability [9]: 73%; bioavailability [6]: 27%; Vdss [10]: 6 L/kg; Papp [11]: permeable; Vdss [7]: 0.9 L/kg
> 90	COc1cc(F)cc2c1nc(C)c1c(C)nc(-c3cccnc3C)n12	
> 90	COc1cc(F)cc2c1nc(C)c1c(C)nc(-c3sc(C)nc3C)n12	

Drug uptake [1] [%]	SMILES	other results
> 90	COc1cc(F)cc2c1nc(C)c1c(C)nc(-c3c(C)nn(C)c3C)n12	
> 90	COc1cc(F)cc2c1nc(C)c1c(C)nc(-c3ccccc3C)n12	
> 90	Cc1ccccc1-c1nc(C)c2c(C)nc3c(OC(F)F)cc(F)cc3n12	
> 90	CCOc1cc(F)cc2c1nc(C)c1c(C)nc(-c3ccccc3C)n12	
> 90	Cc1ccccc1-c1nc(C)c2c(C)nc3c(OCC(F)(F)F)cc(F)cc3n12	
> 90	Cc1ccccc1-c1nc(C)c2c(C)nc3c(OCC4CC4)cc(F)cc3n12	
> 90	Cc1ccccc1-c1nc(C)c2c(C)nc3c(O)cc(F)cc3n12	
> 90	COc1cc(OC)c2nc(C)c3c(C)nc(-c4cnccc4C)n3c2c1	Vdss [12]: 1.6 L/kg; AUC [3]: 8850 ng·h/mL; AUC [4]: 3280 ng·h/mL; bioavailability [13]: 100%; bioavailability [6]: 25%; Vdss [7]: 1.3 L/kg
> 90	COc1cc(OC)c2nc(C)c3c(C)nc(-c4ccncc4C)n3c2c1	
> 90	COc1cc(OC)c2nc(C)c3c(C)nc(-c4cccnc4C)n3c2c1	
> 90	COc1cc(N2CCOCC2)cc2c1nc(C)c1c(C)nc(-c3ccncc3C)n12	
> 90	COc1cc(N2CCOCC2)cc2c1nc(C)c1c(C)nc(-c3cccnc3C)n12	
> 90	COc1cc(OCc2ccccc2)cc2c1nc(C)c1c(C)nc(-c3cccnc3C)n12	
> 90	COc1cc(OC(F)F)cc2c1nc(C)c1c(C)nc(-c3cccnc3C)n12	Vdss [14]: 0.6 L/kg; bioavailability [15]: 84%; bioavailability [16]: 83%; Vdss [17]: 1.1 L/kg; AUC [3]: 12700 ng·h/mL; AUC [4]: 4400 ng·h/mL
> 90	COc1cc(C(F)(F)F)cc2c1nc(C)c1c(C)nc(-c3ccncc3C)n12	
> 90	COc1cc(Cl)c2nc(C)c3c(C)nc(-c4ccncc4C)n3c2c1	
> 90	Cc1cnccc1-c1nc(C)c2c(C)nc3c(Cl)cc(C(F)(F)F)cc3n12	
> 90	COc1cc(F)c2nc(C)c3c(C)nc(-c4cnccc4C)n3c2c1	
> 90	COc1cc(F)c2nc(C)c3c(C)nc(-c4ccncc4C)n3c2c1	
> 90	COc1cc(F)c2nc(C)c3c(C)nc(-c4cccnc4C)n3c2c1	
> 90	Cc1cnccc1-c1nc(C)c2c(C)nc3c(F)cc(OC(F)F)cc3n12	
> 90	Cc1cnccc1-c1nc(C)c2c(C)nc3c(F)cc(OCC(F)(F)F)cc3n12	
> 90	Cc1cnccc1-c1nc(C)c2c(C)nc3c(F)cc(OCC4CC4)cc3n12	
> 90	COc1cc(F)c2nc(C)c3c(C)nc(-c4c(C)nn(C)c4C)n3c2c1	
